Measured values reported in patent US20170014386A1, “Treatment of Multidrug-Resistant Nephrotic Syndrome (MDR-NS) in Children” (AbbVie, Inc., priority 2015, published 2017).
Entries after “also recorded” stand apart in the source; their conditions may differ.

Tests used:
[1] = biological target: T1, ETA receptor (Homo sapiens, UniProt P25101); conditions: cited from earlier work
T1 sequence (P25101 21-427): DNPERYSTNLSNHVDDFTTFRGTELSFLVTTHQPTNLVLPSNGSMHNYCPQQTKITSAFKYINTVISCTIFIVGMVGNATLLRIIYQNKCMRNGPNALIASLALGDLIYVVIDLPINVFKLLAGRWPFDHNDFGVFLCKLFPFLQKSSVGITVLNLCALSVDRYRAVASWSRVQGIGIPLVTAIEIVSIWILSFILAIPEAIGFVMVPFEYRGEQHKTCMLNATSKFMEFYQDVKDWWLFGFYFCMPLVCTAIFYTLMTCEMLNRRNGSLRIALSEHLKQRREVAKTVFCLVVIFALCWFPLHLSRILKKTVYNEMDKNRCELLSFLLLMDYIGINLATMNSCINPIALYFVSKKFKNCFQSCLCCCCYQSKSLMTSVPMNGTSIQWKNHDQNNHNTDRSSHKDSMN

[2] = system: podocin; experiment: podocin expression analysis (Western blot, qRT-PCR, immunofluorescence) in the mouse model; type: in vivo; conditions: treated animals, Example 2
Procedure: Further podocin expression analysis was carried out.

[3] = system: Nphs2^R140Q/− mice; experiment: proteinuria in inducible mouse model of podocin-related nephrotic syndrome; type: in vivo
Procedure: We have analyzed results from studies in a transgenic mouse model where the mice were treated with atrasentan. Using the Cre recombinase technology, we generated a novel inducible mouse model of podocin-related nephrotic syndrome. Cross-breeding of animals carrying one foxed podocin construct, one podocin allele with the R140Q mutation, and tamoxifen-sensitive inducible Cre enabled us to induce hemizygosity for the R140Q mutant. In this work, we were able to examine the human missense mutation […] of NPHS2 gene identified in pediatric patients with nephrotic syndrome in vivo in an inducible mouse model of R140Q mutation (murine analogue to the human mutation). […] Furthermore, from the end of the week four of observation the values of plasma urea and creatinine started to increase slightly and the creatinine clearance appeared to reduce, pointing to the beginning of renal failure. Seven animals were treated with 5 mg/kg/d atrasentan and another three animals were treated with the lower dose of 2.5 mg/kg/d atrasentan via food intake for four weeks. Furthermore, we started a new group of 8 animals with a higher dose treatment of 15 mg/kg/d atrasentan. […] Proteinuria (FIG. 1A, FIG. 1B, and FIG. 1D), weight gain and blood pressure (FIG. 1C) were monitored once weekly. All animals were sacrificed at the end of the observation period at week 5 (or week 9 with delayed treatment) and the biochemical parameters (FIG. 3A-E) were determined. All results were compared to two control groups of healthy and sick untreated animals. […] Therefore, we started the treatment after 4 weeks of disease state (5 mg/kg/d) when animals are showing high proteinuria, performing 4-weeks treatment duration (n=14) and 8 weeks treatment duration (n=4), respectively. Proteinuria (FIG. 6), weight gain and blood pressure (FIG. 7) were monitored at least every 2 weeks. All animals were sacrificed at the end of the observation period and biochemical parameters (FIG. 8) as well as histological changes (FIG. 9) were determined consequently. […]

[4] = system: Nphs2^R140Q/− mice; experiment: kidney histopathology (tubulointerstitial fibrosis, glomerular sclerosis index, podocytes per glomerulus) in the mouse model; type: in vivo
Procedure: We have analyzed results from studies in a transgenic mouse model where the mice were treated with atrasentan. Using the Cre recombinase technology, we generated a novel inducible mouse model of podocin-related nephrotic syndrome. Cross-breeding of animals carrying one foxed podocin construct, one podocin allele with the R140Q mutation, and tamoxifen-sensitive inducible Cre enabled us to induce hemizygosity for the R140Q mutant. In this work, we were able to examine the human missense mutation […] of NPHS2 gene identified in pediatric patients with nephrotic syndrome in vivo in an inducible mouse model of R140Q mutation (murine analogue to the human mutation). […] Furthermore, from the end of the week four of observation the values of plasma urea and creatinine started to increase slightly and the creatinine clearance appeared to reduce, pointing to the beginning of renal failure. Proteinuria (FIG. 1A, FIG. 1B, and FIG. 1D), weight gain and blood pressure (FIG. 1C) were monitored once weekly. All animals were sacrificed at the end of the observation period at week 5 (or week 9 with delayed treatment) and the biochemical parameters (FIG. 3A-E) were determined. All results were compared to two control groups of healthy and sick untreated animals. […] Quantification was done with Image ProPremier (glomerular sclerosis index-GSI, 50 glomeruli/animal). […] FIG. 5C tabulates podocyte numbers per glomerulusWT1-via immunostaining of glomerular cross-sections (4 μm and 10 μm). Quantification was done with ImageJ according to Animal Models of Diabetic Complications Consortium protocol. 50 glomeruli/animal. We found no effect on the number of podocytes per glomerulus in treated animals. Proteinuria (FIG. 6), weight gain and blood pressure (FIG. 7) were monitored at least every 2 weeks. All animals were sacrificed at the end of the observation period and biochemical parameters (FIG. 8) as well as histological changes (FIG. 9) were determined consequently. All results were compared to control groups of healthy and sick untreated animals. […] FIG. 9A are exemplary images of healthy, untreated and Atrasentan treated kidney samples.

[5] = system: Nphs2^R140Q/− mice; experiment: mean arterial blood pressure in inducible mouse model of podocin-related nephrotic syndrome; type: in vivo
Procedure: We have analyzed results from studies in a transgenic mouse model where the mice were treated with atrasentan. Using the Cre recombinase technology, we generated a novel inducible mouse model of podocin-related nephrotic syndrome. Cross-breeding of animals carrying one foxed podocin construct, one podocin allele with the R140Q mutation, and tamoxifen-sensitive inducible Cre enabled us to induce hemizygosity for the R140Q mutant. In this work, we were able to examine the human missense mutation […] of NPHS2 gene identified in pediatric patients with nephrotic syndrome in vivo in an inducible mouse model of R140Q mutation (murine analogue to the human mutation). […] Furthermore, from the end of the week four of observation the values of plasma urea and creatinine started to increase slightly and the creatinine clearance appeared to reduce, pointing to the beginning of renal failure. Seven animals were treated with 5 mg/kg/d atrasentan and another three animals were treated with the lower dose of 2.5 mg/kg/d atrasentan via food intake for four weeks. Furthermore, we started a new group of 8 animals with a higher dose treatment of 15 mg/kg/d atrasentan. […] Proteinuria (FIG. 1A, FIG. 1B, and FIG. 1D), weight gain and blood pressure (FIG. 1C) were monitored once weekly. All animals were sacrificed at the end of the observation period at week 5 (or week 9 with delayed treatment) and the biochemical parameters (FIG. 3A-E) were determined. All results were compared to two control groups of healthy and sick untreated animals. […] Therefore, we started the treatment after 4 weeks of disease state (5 mg/kg/d) when animals are showing high proteinuria, performing 4-weeks treatment duration (n=14) and 8 weeks treatment duration (n=4), respectively. Proteinuria (FIG. 6), weight gain and blood pressure (FIG. 7) were monitored at least every 2 weeks. All animals were sacrificed at the end of the observation period and biochemical parameters (FIG. 8) as well as histological changes (FIG. 9) were determined consequently. All results were compared to control groups of healthy and sick untreated animals.

[6] = system: Endothelin-1, ETAR and ETBR; experiment: expression of Endothelin-1, ETAR and ETBR (real-time PCR, Western blot) in kidney of the mouse model; type: in vivo; conditions: Atrasentan treated animals, Example 2
Procedure: Western blot analysis was performed to confirm the observation of increased mRNA level in the late course of disease (FIG. 11).

[7] = delayed treatment, 4 weeks of treatment, compared to sick untreated animals of the same age, Example 2

## CCCCN(CCCC)C(=O)CN1C[C@H](c2ccc3c(c2)OCO3)[C@@H](C(=O)O)[C@@H]1c1ccc(OC)cc1 [atrasentan, (2R,3R,4S)-4-(1,3-Benzodioxol-5-yl)-1-[2-(dibutylamino)-2-oxoethyl]-2-(4-methoxyphenyl)pyrrolidine-3-carboxylic acid]
[1]
  relative selectivity for ETA receptor over ETB receptor: greater than 1,800 fold
[2]; Western blot
  Podocin protein abundance: partly preserved
[2]; qRT-PCR
  Podocin mRNA expression: partly preserved
[3]; delayed treatment 5 mg/kg/d after 4 weeks of disease state, Example 2
  proteinuria: reaches a peak and declines afterwards progressively; also recorded: decreased progressively
[3]; delayed treatment 5 mg/kg/d started four weeks after induction, n=9, Example 1
  proteinuria: effective attenuation of proteinuria; also recorded: antiproteinuric effect
[3]; immediate or prophylactic treatment, 2.5, 5 or 15 mg/kg/d via food, first 4 weeks after induction, Example 1
  proteinuria: no beneficial effect in attenuating proteinuria; also recorded: no antiproteinuric effect
[4]; 2.5 mg/kg/d, p<0.05 compared to untreated group, Example 1
  tubulointerstitial fibrosis: reduced area affected by fibrosis
[4]; 5 mg/kg/d, p<0.05 compared to untreated group, Example 1
  tubulointerstitial fibrosis: reduced area affected by fibrosis
[4]; 15 mg/kg/d, Example 1
  tubulointerstitial fibrosis: increase of tubulointerstial fibrosis
[4]; all treatment groups, PAS staining, 50 glomeruli/animal, Example 1
  glomerular sclerosis index (GSI): No improvement
[4]; delayed treatment (D), n.s. vs. untreated wk 8 32%
  podocytes per glom: 54 % of healthy controls
[4]; delayed treatment (D), n=9, p=0.0008 v untreated wk 8 2.27
  GSI: 1.69
[4]; [7]
  glomerulosclerosis: mitigated
  tubulointerstitial fibrosis: mitigated
[4]; delayed treatment, 4 weeks of treatment, Example 2
  podocyte population: No notable effects
[4]; treated animals, WT1 immunostaining, Example 1
  number of podocytes per glomerulus: no effect
[5]; delayed treatment 5 mg/kg/d, compared to untreated animals, Example 1
  blood pressure: lowered blood pressure
[5]; delayed treatment (D), wk7, p=0.001 v untreated 99.5
  MAP: 80.4 mmHg
[5]; four-week delay, 5 mg/kg/d, compared to untreated animals at week 5 and 7 (p=0.001, p=0.047), Example 2
  blood pressure: significant decrease of blood pressure
[5]; prophylactic 2.5 mg/kg/d, compared to untreated and healthy animals, Example 1
  blood pressure: higher blood pressure
[5]; prophylactic 5 mg/kg/d, compared to untreated and healthy animals, Example 1
  blood pressure: higher blood pressure
[5]; prophylactic 15 mg/kg/d, compared to untreated animals, Example 1
  blood pressure: lower blood pressure
[6]
  ETAR mRNA expression: lower expression
  ETBR mRNA expression: lower expression
  endothelin-1 mRNA expression: lower expression
[6]; Western blot
  protein expression of endothelin-1: decreased protein expression
